Patent US8487001B2, “Medium-chain length fatty acids, glycerides and analogues as neutrophil survival and activation factors” (ProMetic BioSciences Inc., priority 2001, dated 2013)

What was measured:
spleen cells = assay: In vivo chemoprotection: spleen cell count
Protocol: (§1) To examine the immunoprotective effect of MCT or other compounds, mice were pre-treated orally at day-3, -2 and -1 or treated intravenously at day 0 with the test compound. Mice were sacrificed at day +5 by cardiac puncture and cervical dislocation. Then, cell suspensions were prepared from thymus, spleen and bone marrow as follow.
(§2) Tissues were crushed in PBS buffer and contaminating erythrocytes were lysed in ACK buffer (155 mM NH4Cl, 12 mM NaHCO3, 0.1 mM EDTA, pH 7.3) for 5 minutes. Cells were then collected by centrifugation and washed three times in PBS and resuspended in tissue culture medium. Cells were counted on a hemacytometer.
(§3) Chemoprotection studies were performed as described in example 16 except that mice were (post)-treated with MCT, sodium caprylate, sodium caprate or capric acid per o.s. on day 1, 2, 3 and 4.

bone marrow cells = assay: In vivo chemoprotection: bone marrow cell count; conditions: for effect on bone marrow cell count, post-treatment: post-treatment per o.s. on day 1, 2, 3 and 4
Protocol: as §1, §2, §3

bone marrow cell subsets = assay: Bone marrow immunophenotyping (CD34, CD13, CD41, CD38); format: in vivo, C57BL/6 mice; conditions: for Bone marrow immunophenotyping: CY-treated mice, test substances compared to cyclophosphamide alone; for % Cells CD13+ (bone marrow) / % Cells CD34+ (bone marrow) / % Cells CD38+ (bone marrow) / % Cells CD41+ (bone marrow): Table 15, CY (200 mg/kg) immunosuppressed mice, CY + test substance (Cyclophosphamide line = CY alone)
Protocol: (§4) Female, 6- to 8-week old, C57BL/6 mice were pre-treated on day -3, -2 and -1 per o.s. or intravenously at day 0 with different concentrations of MCT. Immunophenotyping was also performed on immunosuppressed animals. […] Mice were sacrificed on day 5 by cardiac puncture. Blood and spleens were collected and cell suspensions prepared and erythrocytes lysed in ACK buffer (155 mM NH4Cl, 12 mM NaHCO3, 0.1 mM EDTA, pH 7.3) for 5 minutes. The cells were washed three times in PBS, pH 7.4 and resuspended in tissue culture medium. The cells were then incubated for 45 minutes on ice with fluorescein isothiocyanate (FITC) or phycoerythrin (PE) conjugated cell surface marker according to the manufacturer's (Gibco/BRL, Cedarlane, Boehringer Mannheim) recommendation. The cells were then washed in PBS, fixed with 1% paraformaldehyde and analyzed with a Coulter XL flow cytometer. Analysis of the cell subsets was undertaken by determination of standard cell surface markers which were as follows: TCR (T-cell receptor), CD4 (T helper), CD8 (T cytotoxic/suppressor), CD11b (macrophage), NK (NK cells) and Ly5 (B-cells). Bone marrow cells were obtained as described in example 15. Cells were stained by a 45 minutes incubation of FITC or PE conjugated cell surface marker according to the manufacturer's recommendation. The cells were then washed in PBS, fixed with 1% paraformaldehyde and analyzed with a Coulter XL flow cytometer. Analysis of the cell subsets was undertaken by determination of standard cell surface markers which were as follows: CD34 (hematopoietic progenitor cells), CD41 (platelets, megakaryocytes), CD13 (myelomonocytic stem cells, myelocytes, promonocytes) and CD38 (lymphoid stem cells, pro-B, pre-B).
The effect of MCT, sodium caprylate, sodium caprate on bone marrow immunophenotyping was assessed by the protocol described in example 26.

blood cell subsets = assay: Blood immunophenotyping (flow cytometry of cell surface markers); format: in vivo, C57BL/6 mice; conditions: CY (200 mg/kg) immunosuppressed mice; for Blood Immunophenotyping: LY5−TCR− cell subset (relative percentage): Table 14
Protocol: as §4

spleen cell subsets = assay: Spleen immunophenotyping (flow cytometry of cell surface markers); format: in vivo, C57BL/6 mice; conditions: CY (200 mg/kg) immunosuppressed mice
Protocol: as §4

[1] = CY-treated mice, protocol of example 16 (pre-treatment)
[2] = Table 6, CY-treated mice, CY + test compound (CY line = CY alone), protocol of example 16
[3] = Table 9, CY-immunosuppressed mice, CY + test compound 6.25 μMole (CY line = CY alone)
[4] = Table 10, CY-treated mice, post-treatment per o.s. on day 1, 2, 3 and 4 with test substance 12.5 μM (CY line = CY alone)
[5] = Table 7, CY-treated mice, CY + test compound 6.25 μMole pre-treatment (CY line = CY alone)
[6] = Table 5, CY-treated mice, CY + test compound (CY line = CY alone), protocol of example 16
[7] = Table 11, CY + capric acid 3.125 μMole post-treatment per o.s. day 1, 2, 3 and 4
[8] = Table 11, CY + capric acid 6.25 μMole post-treatment per o.s. day 1, 2, 3 and 4
[9] = Table 11, CY + capric acid 12.5 μMole post-treatment per o.s. day 1, 2, 3 and 4
[10] = Table 16, CY-treated mice, CY + test compound (CY line = CY alone), protocol of example 16
[11] = Table 17, CY-treated mice, CY + test compound (CY line = CY alone), protocol of example 16

With `CCCCCCCCCC(=O)OCC(COC(=O)CCCCCCCCC)OC(=O)CCCCCCCCC` [tricaprin] the “effect on spleen cell count compared to cyclophosphamide treated mice” value (spleen cells; [1]) was “No significant effect”, the “Spleen # Cells (×10^6)” value (spleen cells; [2]) was 38 ± 6.8 ×10^6 and the “effect on bone marrow cell count compared to cyclophosphamide treated mice” value (bone marrow cells; [1]) was “efficacious in the proliferation or protection of bone marrow cell counts”. The “Bone Marrow # Cells (×10^6)” value (bone marrow cells; [2]) was 31 ± 3.8 ×10^6.
In the case of `O=c1[nH]cc(F)c(=O)[nH]1` [5-FU, 5-fluorouracil, reference compound], the “effect of cytotoxic drug on spleen cell count compared to the control” value (spleen cells; mouse, in vivo, iv) is reported as “reduce significantly the spleen cell count compared to the control” and the “effect of cytotoxic drug on bone marrow cell count compared to the control” value (bone marrow cells; mouse, in vivo, iv) is reported as “depressed the bone marrow cell count compared to the control”.
In the case of `CCCCCC(=O)OCC(COC(=O)CCCCC)OC(=O)CCCCC` [tricaproin], the “effect on spleen cell count compared to cyclophosphamide treated mice” value (spleen cells; [1]) is reported as “weak (not significant) activity”, the “Spleen # Cells (×10^6)” value (spleen cells; [3]) is reported as 37 ± 8.7 ×10^6 and the “effect on bone marrow cell count compared to cyclophosphamide treated mice” value (bone marrow cells; [1]) is reported as “weak (not significant) activity”. For the same compound, the “Bone Marrow # Cells (×10^6)” value (bone marrow cells; [3]) was 29 ± 4.1 ×10^6.
In the case of `CCCCCCCC(=O)[O-].[Na+]` [sodium caprylate], the “Spleen # Cells (×10^6)” value (spleen cells; [4]) is reported as 36 ± 12.5 ×10^6, the “effect on bone marrow cell count, post-treatment” value (bone marrow cells; CY-treated mice) is reported as “significant increase in bone marrow cell count” and the “effect on bone marrow cell count compared to cyclophosphamide treated mice” value (bone marrow cells; [1]) is reported as “significant increase in proliferation or protection of bone marrow cell count”. The “Bone Marrow # Cells (×10^6)” value (bone marrow cells; [4]) was 26 ± 5.33 ×10^6, the “Bone marrow immunophenotyping” value (bone marrow cell subsets) was “amplifies the number of CD13+ lineage” and the “% Cells CD13+ (bone marrow)” value (bone marrow cell subsets) was 4.9 ± 1.2%. The “% Cells CD34+ (bone marrow)” value (bone marrow cell subsets) was 11.2 ± 1.3%, the “% Cells CD38+ (bone marrow)” value (bone marrow cell subsets) was 36 ± 9.7% and the “% Cells CD41+ (bone marrow)” value (bone marrow cell subsets) was 4.6 ± 1.3%.
In the case of `CCCCCCCCCCCC(=O)O` [lauric acid], the “effect on spleen cell count compared to cyclophosphamide treated mice” value (spleen cells; [1]) is reported as “Significant increases in proliferation or protection of bone marrow and spleen cell counts”, the “Spleen # Cells (×10^6)” value (spleen cells; [5]) is reported as 32 ± 5 ×10^6 and the “effect on bone marrow cell count compared to cyclophosphamide treated mice” value (bone marrow cells; [1]) is reported as “Significant increases in proliferation or protection of bone marrow and spleen cell counts”. For the same compound, the “Bone Marrow # Cells (×10^6)” value (bone marrow cells; [5]) was 42 ± 7.8 ×10^6.
With `CCCCCCCCCC(=O)OCC` [ethyl caprate] the “Bone Marrow # Cells (×10^6)” value (bone marrow cells; Table 18, CY-treated mice, CY + test compound (CY line = CY alone), protocol of example 16) was 27.5 ± 4.4 ×10^6.
With `CCCCCCCCCC(=O)O` [capric acid] the “Blood Immunophenotyping: effect compared to cyclophosphamide alone (words)” value (blood cell subsets) was “significantly increase the relative percentage of LY5-TCR- on blood”, the “Blood Immunophenotyping: LY5−TCR− cell subset (relative percentage)” value (blood cell subsets; compound 6.25 μM) was 61.52 ± 5.16 and the “Blood Immunophenotyping: LY5−TCR− cell subset (relative percentage)” value (blood cell subsets; compound 12.5 μM) was 70.79 ± 3.95. For the same compound, the “effect on spleen cell count, post-treatment” value (spleen cells; CY-treated mice, post-treatment per o.s. on day 1, 2, 3 and 4) was “significant increase in spleen cell count”, the “effect on spleen cell count compared to cyclophosphamide treated mice” value (spleen cells; [1]) was “No significant effect” and the “Spleen # Cells (×10^6)” value (spleen cells; [6]) was 27 ± 8.4 ×10^6. The “Spleen # Cells (×10^6)” value (spleen cells; [7]) was 31 ± 8.7 ×10^6, the “Spleen # Cells (×10^6)” value (spleen cells; [8]) was 25 ± 6.3 ×10^6 and the “Spleen # Cells (×10^6)” value (spleen cells; [9]) was 36 ± 7.8 ×10^6. For the same compound, the “effect on bone marrow cell count, post-treatment” value (bone marrow cells; CY-treated mice) was “weak increase in bone marrow cell count”, the “effect on bone marrow cell count compared to cyclophosphamide treated mice” value (bone marrow cells; [1]) was “significantly enhances the bone marrow cell counts” and the “Bone Marrow # Cells (×10^6)” value (bone marrow cells; [6]) was 32 ± 2.71 ×10^6. For the same compound, the “Bone Marrow # Cells (×10^6)” value (bone marrow cells; [7]) was 37 ± 7.8 ×10^6, the “Bone Marrow # Cells (×10^6)” value (bone marrow cells; [8]) was 38 ± 4.6 ×10^6 and the “Bone Marrow # Cells (×10^6)” value (bone marrow cells; [9]) was 38 ± 7.4 ×10^6. For the same compound, the “Spleen Immunophenotyping: effect compared to cyclophosphamide alone (words)” value (spleen cell subsets) was “no significant effect compared to cyclophosphamide alone” and the “Spleen Immunophenotyping: effect compared to cyclophosphamide alone (words)” value (spleen cell subsets; listed as Capric acid) was “No significant effect”.
For `CCCCCCCCCC(=O)[O-].[Na+]` [sodium caprate], the “Spleen # Cells (×10^6)” value (spleen cells; [4]) was 28 ± 6.3 ×10^6, the “effect on bone marrow cell count, post-treatment” value (bone marrow cells; CY-treated mice) was “significant increase in bone marrow cell count” and the “effect on bone marrow cell count compared to cyclophosphamide treated mice” value (bone marrow cells; [1]) was “significant increase in proliferation or protection of bone marrow cell count”. For the same compound, the “Bone Marrow # Cells (×10^6)” value (bone marrow cells; [4]) was 29 ± 4.45 ×10^6, the “Bone marrow immunophenotyping” value (bone marrow cell subsets) was “amplifies the number of CD13+ lineage” and the “% Cells CD13+ (bone marrow)” value (bone marrow cell subsets) was 4.7 ± 1.7%. For the same compound, the “% Cells CD34+ (bone marrow)” value (bone marrow cell subsets) was 9.1 ± 3.1%, the “% Cells CD38+ (bone marrow)” value (bone marrow cell subsets) was 44.3 ± 22.8% and the “% Cells CD41+ (bone marrow)” value (bone marrow cell subsets) was 3.7 ± 0.7%.
In the case of `CCCCCCCCCC(=O)NC(COC(=O)CCCCCCCCC)COC(=O)CCCCCCCCC` [tridecanoyl serinol, 1,2,3-O,N,O-Tridecanoyl serinol], the “effect on spleen cell count compared to cyclophosphamide treated mice” value (spleen cells; [1]) is reported as “significantly enhances the spleen cell counts”, the “Spleen # Cells (×10^6)” value (spleen cells; [10]) is reported as 42 ± 8.4 ×10^6 and the “effect on bone marrow cell count compared to cyclophosphamide treated mice” value (bone marrow cells; [1]) is reported as “No significant effect”. The “Bone Marrow # Cells (×10^6)” value (bone marrow cells; [10]) was 28 ± 4.6 ×10^6.
For `CCCCCC(=O)[O-].[Na+]` [sodium caproate], the “Blood Immunophenotyping: effect compared to cyclophosphamide alone (words)” value (blood cell subsets) was “significantly increase the relative percentage of LY5-TCR- on blood”, the “Blood Immunophenotyping: LY5−TCR− cell subset (relative percentage)” value (blood cell subsets; compound 6.25 μM) was 52.43 ± 10.16 and the “Spleen # Cells (×10^6)” value (spleen cells; [3]) was 35 ± 10.6 ×10^6. For the same compound, the “effect on spleen cell count compared to cyclophosphamide treated mice” value (spleen cells; mouse, in vivo) was “weak (not significant) activity”, the “Bone Marrow # Cells (×10^6)” value (bone marrow cells; [3]) was 39 ± 17.9 ×10^6 and the “effect on bone marrow cell count compared to cyclophosphamide treated mice” value (bone marrow cells; mouse, in vivo) was “weak (not significant) activity”.
For `CCCCCCCCC(=O)O` [nonanoic acid], the “effect on spleen cell count compared to cyclophosphamide treated mice” value (spleen cells; [1]) was “weak (not significant) activity on immune cell counts”, the “Spleen # Cells (×10^6)” value (spleen cells; [5]) was 28 ± 4 ×10^6 and the “effect on bone marrow cell count compared to cyclophosphamide treated mice” value (bone marrow cells; [1]) was “weak (not significant) activity on immune cell counts”. The “Bone Marrow # Cells (×10^6)” value (bone marrow cells; [5]) was 36 ± 5.6 ×10^6.
`CCCCCCCCCC(=O)OC1C(C)OC(OC)C(OC(=O)CCCCCCCCC)C1OC(=O)CCCCCCCCC` [β-methyl tridecanoyl-L-fucopyranose, β-O-Methyl-2,3,4,—O,O,O-tridecanoyl-L-fucopyranose] was tested, and the “Bone Marrow # Cells (×10^6)” value (bone marrow cells; [11]) was 34.6 ± 8.5 ×10^6 and the “effect on bone marrow cell count compared to cyclophosphamide treated mice” value (bone marrow cells; mouse, in vivo) was “weak (not significant) activity on bone marrow cell counts”.
With `CCCCCCCC(=O)O` [caprylic acid] the “effect on spleen cell count compared to cyclophosphamide treated mice” value (spleen cells; [1]) was “No significant effect”, the “Spleen # Cells (×10^6)” value (spleen cells; [6]) was 28 ± 6.4 ×10^6 and the “Bone Marrow # Cells (×10^6)” value (bone marrow cells; [6]) was 26 ± 3.58 ×10^6.
In the case of `CCCCCCCCCC(=O)OC1C(C)OC(OC)C(OC(=O)CCCCCCCCC)C1OC(=O)CCCCCCCCC` [α-methyl tridecanoyl-L-fucopyranose, α-O-Methyl-2,3,4,—O,O,O-tridecanoyl-L-fucopyranose], the “Bone Marrow # Cells (×10^6)” value (bone marrow cells; [11]) is reported as 30.4 ± 9.3 ×10^6 and the “effect on bone marrow cell count compared to cyclophosphamide treated mice” value (bone marrow cells; mouse, in vivo) is reported as “lack of activity”.
